Experimental data reported in patent publication US5827883A, “Dermatological use of vitamin D derivatives” (priority 1995, dated 1998).
Read-outs that look alike come from different tables or passages of the source.

Assays:
human VDR = target: T1, human VDR (Homo sapiens, UniProt P11473); assay: VDR activation (transcription activation assay; COS cells cotransfected with human VDR and VDRE3-luciferase reporter); format: cell-based; conditions: human VDR (pSG5), VDRE3 rat osteocalcin / tk promoter / luciferase reporter, concentration giving half-maximal activity (8-10 fold luciferase induction), read-out: Vitamin D Receptor Activation ED50
T1 construct: expressed in transfected cells; host or cells: COS cells
T1 sequence (P11473 1-427): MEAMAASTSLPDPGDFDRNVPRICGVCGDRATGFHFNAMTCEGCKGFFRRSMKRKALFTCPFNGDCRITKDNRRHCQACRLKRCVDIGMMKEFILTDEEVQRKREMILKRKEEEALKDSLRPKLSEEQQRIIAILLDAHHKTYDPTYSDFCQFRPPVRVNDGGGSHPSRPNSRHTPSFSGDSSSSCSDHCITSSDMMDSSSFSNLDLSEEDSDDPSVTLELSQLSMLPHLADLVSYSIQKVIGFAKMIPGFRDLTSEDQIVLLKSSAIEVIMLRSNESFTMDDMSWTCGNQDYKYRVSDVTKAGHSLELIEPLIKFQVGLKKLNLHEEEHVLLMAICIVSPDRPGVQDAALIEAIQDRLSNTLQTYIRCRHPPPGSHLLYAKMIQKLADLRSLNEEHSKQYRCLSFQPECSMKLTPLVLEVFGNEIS
Text: In order to measure the activation of the vitamin D receptor (VDR) by vitamin D analogs in cells a transcription activation assay was used. COS cells were cotransfected with the human VDR (expressed in pSG5) and a reporter gene containing three response elements (VDRE3) from the rat osteocalcin gene, the thymidine kinase basal promoter, and the luciferase reporter gene.

[1] = Calcium liability (tolerance test in mice); conditions: mouse, in vivo, sc
Text: This routine test gives a global picture of calcemic liability. Profound changes in calcium homeostasis strongly affect the weight development of the animals. This parameter was used as a primary test for tolerance. Mice (25-30 g body weight.) received daily subcutaneous administrations of the vitamin D derivative for 4 consecutive days. Body weight was registered just before and at the end of a 5 day treatment period.

[2] = mice 25-30 g, daily subcutaneous administration for 4 consecutive days, body weight before and at end of 5 day treatment period, read-out: HTD in mice (highest tolerated dose, dose which results in zero weight gain)

Row | Compound | EC50 (human VDR) [nM] | MTD at 120 h [1] [mg/kg] | MTD at 120 h [1, 2] [mg/kg]
1 | C=C1/C(=C\C=C2/CCC[C@]3(C)[C@@H]([C@H](C)COC(=O)CC(C)(O)CC)CC[C@@H]23)C[C@@H](O)C[C@@H]1O (mixture of isomers) [Example 29, 1:1 Mixture of (R)-and-(S)-3-hydroxy-3-methyl-pentanoic acid-(5Z,7E)-(1S,3R,20S)-1,3-dihydroxy-20-methyl-9,10-seco-pregna-5,7,10 (19)-trien-21-yl ester] | 2.5 | 7 | 
2 | C=C1/C(=C\C=C2/CCC[C@]3(C)[C@@H]([C@H](C)CCCC(C)(C)O)CC[C@@H]23)C[C@@H](O)C[C@@H]1O [Calcitriol, calcitriol, reference compound] |  |  | 0.0005
3 | C[C@H](C(=O)OCC1(O)CCCC1)[C@H]1CC[C@H]2/C(=C/C=C3C[C@@H](O)C[C@H](O)C3)CCC[C@]12C [Example 7, (7E)-(1R,3R,20S)-1,3-Dihydroxy-20-methyl-19-nor-9,10-seco-pregna-5,7-dien-21-oic acid 1-hydroxy-cyclopentylmethyl ester] | 18 |  | > 5
4 | C[C@H](C(=O)OCC1(O)CCCCC1)[C@H]1CC[C@H]2/C(=C/C=C3C[C@@H](O)C[C@H](O)C3)CCC[C@]12C [Example 8, (7E)-(1R,3R,20S)-1,3-Dihydroxy-20-methyl-19-nor-9,10-seco-pregna-5,7-dien-21-oic acid 1-hydroxy-cyclohexyl methyl ester] | 38 |  | 1
5 | C=C1/C(=C\C=C2/CCC[C@]3(C)[C@@H]([C@H](C)C(=O)OCC4(O)CCCCC4)CC[C@@H]23)C[C@@H](O)C[C@@H]1O [Example 9, (5Z,7E)-(1R,3R,20S)-1,3-Dihydroxy-20-methyl-9,10-seco-pregna-5,7,10-trien-21-oic acid 1-hydroxy-cyclohexylmethyl ester] | 5.6 |  | 1
6 | C[C@H](C(=O)OCC1(O)CCCCCC1)[C@H]1CC[C@H]2/C(=C/C=C3C[C@@H](O)C[C@H](O)C3)CCC[C@]12C [Example 10, (7E)-(1R,3R,20S)-1,3-Dihydroxy-20-methyl-19-nor-9,10-seco-pregna-5,7-dien-21-oic acid 1-hyddroxy-cycloheptylmethyl ester] | 31 |  | > 6
7 | C[C@H](C(=O)OCCC1(O)CCCC1)[C@H]1CC[C@H]2/C(=C/C=C3C[C@@H](O)C[C@H](O)C3)CCC[C@]12C [Example 11, (7E)-(1R,3R,20S)-1,3-Dihydroxy-20-methyl-19-nor-9,10-seco-pregna-5,7-dien-21-oic acid 2-(1-hyddroxy-cyclopentyl)-ethyl ester] | 180 |  | > 6
8 | C=C1/C(=C\C=C2/CCC[C@]3(C)[C@@H]([C@@H](C)COC(=O)C(C)(C)C)CC[C@@H]23)C[C@@H](O)C[C@@H]1O [Example 19, 2,2-Dimethyl-propionic acid-(5Z,7E)-(1S,3R,20R)-1,3-dihydroxy-20-methyl-9,10-seco-pregna-5,7,10 (19)-trien-21-yl ester] | 0.28 | > 6 | 
9 | C=C1/C(=C\C=C2/CCC[C@]3(C)[C@@H]([C@@H](C)COC(=O)C(C)(C)O)CC[C@@H]23)C[C@@H](O)C[C@@H]1O [Example 20, 2-Hydroxy-2-methyl-propionic acid-(5Z,7E)-(1S,3R,20R)-1,3-dihydroxy-20-methyl-9,10-seco-pregna-5,7,10 (19)-trien-21-yl ester] | 0.82 | > 10 | 
10 | C[C@@H](COC(=O)C(C)(C)O)[C@H]1CC[C@H]2/C(=C/C=C3C[C@@H](O)C[C@H](O)C3)CCC[C@]12C [Example 21, 2-Hydroxy-2-methyl-propionic acid-(7E)-(1R,3R,20R)-1,3-dihydroxy-20-methyl-19-nor-9,10-seco-pregna-5,7-dien-21-yl ester] | 0.55 |  | > 9
11 | C=C1/C(=C\C=C2/CCC[C@]3(C)[C@@H]([C@H](C)COC(=O)C(C)(C)C)CC[C@@H]23)C[C@@H](O)C[C@@H]1O [Example 22, 2,2-Dimethyl-propionic acid (5Z,7E)-(1R,3R)-1,3-dihydroxy-23,24-dinor-9,10-secochola-5,7-dien-22-yl ester] | 141 | 9 | 
12 | C=C1/C(=C\C=C2/CCC[C@]3(C)[C@@H]([C@H](C)COC(=O)C(C)(C)O)CC[C@@H]23)C[C@@H](O)C[C@@H]1O [Example 23, 2-Hydroxy-2-methyl-propionic acid-(5Z,7E)-(1S,3R,20S)-1,3-dihydroxy-20-methyl-9,10-seco-pregna-5,7,10 (19)-trien-21-yl ester] | 83 | > 11 | 
13 | C=C1/C(=C\C=C2/CCC[C@]3(C)[C@@H]([C@H](C)COC(=O)C(O)(CC)CC)CC[C@@H]23)C[C@@H](O)C[C@@H]1O [Example 24, 2-Ethyl-2-hydroxy-butyric acid-(5Z,7E)-(1S,3R,20S)-1,3-dihydroxy-20-methyl-9,10-seco-pregna-5,7,10 (19)-trien-21-yl ester] | 18 |  | 2.5
14 | C=C1/C(=C\C=C2/CCC[C@]3(C)[C@@H]([C@H](C)COC(=O)CC(C)(O)C(F)(F)F)CC[C@@H]23)C[C@@H](O)C[C@@H]1O (stereo partly drawn) [Example 28] | 0.53 |  | 0.5
